Laboratory results: ChEMBL document CHEMBL3774317, “Design and synthesis of novel tamoxifen analogues that avoid CYP2D6 metabolism” (Eur J Med Chem, 2016)

Key:
Type in all cases: functional
[1] = tested on: MDA-MB-435; assay: Cytotoxicity against human MDA-MB-435 cells assessed as cell growth at 50 nM after 48 hrs by SRB assay; settings: MDA-MB-435, 48 h, read-out: Activity
[2] = Cytotoxicity against human RPMI8226 cells assessed as cell growth at 50 nM after 48 hrs by SRB assay; settings: RPMI-8226, 48 h, read-out: Activity
[3] = tested on: KM12; assay: Cytotoxicity against human KM12 cells assessed as cell growth at 50 uM after 48 hrs by SRB assay; settings: KM12, 48 h, read-out: Activity
[4] = Cytotoxicity against human IGROV1 cells assessed as cell growth at 0.5 uM after 48 hrs by SRB assay; settings: IGROV-1, 48 h, read-out: Activity
[5] = tested on: HT-29; assay: Cytotoxicity against human HT-29 cells assessed as cell growth at 0.5 uM after 48 hrs by SRB assay; settings: HT-29, 48 h, read-out: Activity
[6] = Cytotoxicity against human HOP92 cells assessed as cell growth at 50 uM after 48 hrs by SRB assay; settings: HOP-92, 48 h, read-out: Activity
[7] = tested on: KM12; assay: Cytotoxicity against human KM12 cells assessed as cell growth at 50 nM after 48 hrs by SRB assay; settings: KM12, 48 h, read-out: Activity
[8] = Cytotoxicity against human TK10 cells assessed as cell growth at 50 uM after 48 hrs by SRB assay; settings: TK-10, 48 h, read-out: Activity
[9] = tested on: ACHN; assay: Cytotoxicity against human ACHN cells assessed as cell growth at 5 nM after 48 hrs by SRB assay; settings: read-out: Activity
[10] = Cytotoxicity against human UO31 cells assessed as cell growth at 50 nM after 48 hrs by SRB assay; settings: UO-31, 48 h, read-out: Activity
[11] = tested on: HT-29; assay: Cytotoxicity against human HT-29 cells assessed as cell growth at 5 uM after 48 hrs by SRB assay; settings: HT-29, 48 h, read-out: Activity
[12] = tested on: U-251; assay: Cytotoxicity against human U251 cells assessed as cell growth at 5 uM after 48 hrs by SRB assay; settings: U-251, 48 h, read-out: Activity
[13] = tested on: MDA-MB-231; assay: Cytotoxicity against human MDA-MB-231 cells assessed as cell growth at 0.5 uM after 48 hrs by SRB assay; settings: MDA-MB-231, 48 h, read-out: Activity
[14] = Cytotoxicity against human SF295 cells assessed as cell growth at 50 nM after 48 hrs by SRB assay; settings: SF-295, 48 h, read-out: Activity
[15] = Cytotoxicity against human SF295 cells assessed as cell growth at 5 uM after 48 hrs by SRB assay; settings: SF-295, 48 h, read-out: Activity
[16] = Cytotoxicity against human SF268 cells assessed as cell growth at 50 nM after 48 hrs by SRB assay; settings: SF-268, 48 h, read-out: Activity
[17] = Cytotoxicity against human MOLT4 cells assessed as cell growth at 5 uM after 48 hrs by SRB assay; settings: MOLT-4, 48 h, read-out: Activity
[18] = tested on: NCI-H226; assay: Cytotoxicity against human NCI-H226 cells assessed as cell growth at 5 uM after 48 hrs by SRB assay; settings: NCI-H226, 48 h, read-out: Activity
[19] = Cytotoxicity against human SF295 cells assessed as cell growth at 5 nM after 48 hrs by SRB assay; settings: SF-295, 48 h, read-out: Activity
[20] = Cytotoxicity against human SF295 cells assessed as cell growth at 0.5 uM after 48 hrs by SRB assay; settings: SF-295, 48 h, read-out: Activity
[21] = Cytotoxicity against human OVCAR8 cells assessed as cell growth at 0.5 uM after 48 hrs by SRB assay; settings: OVCAR-8, 48 h, read-out: Activity
[22] = Cytotoxicity against human HOP62 cells assessed as cell growth at 10^-5 M after 48 hrs by SRB assay; settings: HOP-62, 48 h, read-out: Activity
[23] = tested on: MDA-MB-435; assay: Cytotoxicity against human MDA-MB-435 cells assessed as cell growth at 10^-8 M after 48 hrs by SRB assay; settings: MDA-MB-435, 48 h, read-out: Activity
[24] = tested on: A498; assay: Cytotoxicity against human A498 cells assessed as cell growth at 10^-7 M after 48 hrs by SRB assay; settings: A498, 48 h, read-out: Activity
[25] = Cytotoxicity against human RXF393 cells assessed as cell growth at 10^-5 M after 48 hrs by SRB assay; settings: RXF 393, 48 h, read-out: Activity
[26] = tested on: MDA-MB-231; assay: Cytotoxicity against human MDA-MB-231 cells assessed as cell growth at 10^-5 M after 48 hrs by SRB assay; settings: MDA-MB-231, 48 h, read-out: Activity
[27] = Cytotoxicity against human PC3 cells assessed as cell growth at 10^-8 M after 48 hrs by SRB assay; settings: PC-3, 48 h, read-out: Activity
[28] = Cytotoxicity against human BT549 cells assessed as cell growth at 10^-5 M after 48 hrs by SRB assay; settings: BT-549, 48 h, read-out: Activity
[29] = Cytotoxicity against human OVCAR4 cells assessed as cell growth at 10^-5 M after 48 hrs by SRB assay; settings: OVCAR-4, 48 h, read-out: Activity
[30] = tested on: NCI-H23; assay: Cytotoxicity against human NCI-H23 cells assessed as cell growth at 10^-4 M after 48 hrs by SRB assay; settings: NCI-H23, 48 h, read-out: Activity
[31] = Cytotoxicity against human UACC62 cells assessed as cell growth at 10^-6 M after 48 hrs by SRB assay; settings: UACC-62, 48 h, read-out: Activity
[32] = tested on: HT-29; assay: Cytotoxicity against human HT-29 cells assessed as cell growth at 10^-7 M after 48 hrs by SRB assay; settings: HT-29, 48 h, read-out: Activity
[33] = tested on: SR; assay: Cytotoxicity against human SR cells assessed as cell growth at 10^-7 M after 48 hrs by SRB assay; settings: read-out: Activity
[34] = tested on: NCI-H23; assay: Cytotoxicity against human NCI-H23 cells assessed as cell growth at 10^-8 M after 48 hrs by SRB assay; settings: NCI-H23, 48 h, read-out: Activity
[35] = Cytotoxicity against human NCI-ADR-RES cells assessed as cell growth at 10^-6 M after 48 hrs by SRB assay; settings: read-out: Activity
[36] = tested on: KM12; assay: Cytotoxicity against human KM12 cells assessed as cell growth at 10^-7 M after 48 hrs by SRB assay; settings: KM12, 48 h, read-out: Activity
[37] = tested on: KM12; assay: Cytotoxicity against human KM12 cells assessed as cell growth at 10^-5 M after 48 hrs by SRB assay; settings: KM12, 48 h, read-out: Activity
[38] = tested on: SK-MEL-5; assay: Cytotoxicity against human SK-MEL-5 cells assessed as cell growth at 10^-4 M after 48 hrs by SRB assay; settings: SK-MEL-5, 48 h, read-out: Activity
[39] = Cytotoxicity against human TK10 cells assessed as cell growth at 10^-4 M after 48 hrs by SRB assay; settings: TK-10, 48 h, read-out: Activity
[40] = Cytotoxicity against human OVCAR8 cells assessed as cell growth at 10^-5 M after 48 hrs by SRB assay; settings: OVCAR-8, 48 h, read-out: Activity
[41] = Cytotoxicity against human Caki1 cells assessed as cell growth at 10^-5 M after 48 hrs by SRB assay; settings: CAKI-1, 48 h, read-out: Activity
[42] = Cytotoxicity against human BT549 cells assessed as cell growth at 10^-6 M after 48 hrs by SRB assay; settings: BT-549, 48 h, read-out: Activity

CCCCCCCCCC(=O)Oc1ccc(/C(=C(/C)c2ccccc2)c2ccc(OCCN3CCCC3)cc2)cc1
growth at 0.05 µM [1]: 92%
growth at 0.05 µM [2]: 100%
growth at 50 µM [3]: -86%
growth at 0.5 µM [4]: 72%
growth at 0.5 µM [5]: 12%
growth at 50 µM [6]: -75%
growth at 0.05 µM [7]: 98%
growth at 50 µM [8]: -87%
growth at 0.005 µM [9]: 101%
growth at 0.05 µM [10]: 89%
growth at 5 µM [11]: 58%
growth at 5 µM [12]: 86%
growth at 0.5 µM [13]: 96%
growth at 0.05 µM [14]: 89%
growth at 5 µM [15]: 86%
growth at 0.05 µM [16]: 97%
growth at 5 µM [17]: 82%
growth at 5 µM [18]: 97%
growth at 0.005 µM [19]: 94%
growth at 0.5 µM [20]: 79%
growth at 0.5 µM [21]: 91%

C/C(=C(/c1ccc(O)cc1)c1ccc(OCCN2CCCC2)cc1)c1ccccc1
growth at 10 µM [22]: -51%
growth at 0.01 µM [23]: 93%
growth at 0.1 µM [24]: 60%
growth at 10 µM [25]: -37%
growth at 10 µM [26]: -10%
growth at 0.01 µM [27]: 104%
growth at 10 µM [28]: 24%
growth at 10 µM [29]: 31%
growth at 100 µM [30]: -83%
growth at 1 µM [31]: 106%
growth at 0.1 µM [32]: 97%
growth at 0.1 µM [33]: 90%
growth at 0.01 µM [34]: 92%
growth at 1 µM [35]: 91%
growth at 0.1 µM [36]: 100%
growth at 10 µM [37]: 12%
growth at 100 µM [38]: -100%
growth at 100 µM [39]: -100%
growth at 10 µM [40]: 35%
growth at 10 µM [41]: 17%
growth at 1 µM [42]: 92%
